Legend:
[1] = test system: p38 MAPK in differentiated PC12 cells; test: Immunolocalization of activated p38 MAPK in neuronal cells; assay type: cell-based, rat; conditions: 10 and 20 min, FIG. 26
Procedure: Immunolocalization of activated p38 MAPK in neuronal cells. Cells were treated as described above, and were plated on glass cover-slips which had been soaked in 10 μg/mL of mouse laminin. Following differentiation, neuronal cells were treated with soluble Aβ1-40 (5 μM) or anasomycin (20 μM, a known stimulator of p38 MAPK) for 10 and 20 min, and immediately fixed in 4% paraformaldehyde in 0.1 M PBS, pH 7.4 for 30 min at 4° C. Cells were washed multiple times in PBS, and incubated for 3 h with a phospho-specific antibody recognizing active active p38 MAPK. Cells were then washed multiple times in PBS and incubated with a secondary HRP-conjugated antibody. Immunostaining was performed using the DAKO ABC kit, cells were counterstained with hematoxylin-eosin, and cells were then observed under a microscope.

[2] = test system: rat aortae (aortic rings); test: Vessel bath vasoactivity assay: ET-1-induced vasoconstriction of rat aortic rings and its enhancement by Aβ or sPLA2; assay type: cell-based
Procedure: Vessel experiments. Freshly dissected aortae were prepared from normal male Sprague-Dawley rats (7-8 months old, purchased from Zivic Miller, Zelienople, Pa.) as previously described by Paris et al, Exp Neurol 1998 and Exp Neurol 1999. Rat aortae were segmented into rings and suspended in Kreb's buffer on hooks connected to a tensiometer linked to a MacLab system. Aortic rings were equilibrated for 2 hours, in 7 mL tissue baths containing Kreb's buffer oxygenated with 95% O2: 5% CO2, and thermoregulated to 37° C. A baseline tension of 2 g was applied to each ring, and the first set of aortic rings was pretreated with the various compounds named above either alone or in combination with Aβ peptides. After 5 minutes of incubation in the presence or absence of Aβ, this first set of vessels was subjected to a dose range of ET-1 (from 1 nM to 5 nM). A second set of vessels was treated with 1 μM of Aβ peptides prior to the addition of ET-1. A third set (control) received only ET-1 treatment. Each ET-1 dose was added only after the constriction response to the previous dose had reached a plateau. In all cases the means ±1 standard error (SE) of the percentage vasoconstriction increase over baseline were determined for each dose of ET-1 used.
(§1) Statistical analysis. Analysis of variance (ANOVA) was used to analyze the data, with post-hoc comparisons of means carried out where appropriate by Sheffe's or Bonferonni's methods. As previously described (Paris et al., Neurosci Lett, 1998), a significant interactive term by ANOVA was taken as evidence that both drug x and Aβ are modulating a common signal transduction pathway. […] Levene's test for equality of variance followed by t-test for independent samples was used for single mean comparisons. Alpha levels were set at 0.05 for all analyses. Analyses were performed using SPSS for Windows release 9.5.

[3] = test system: intact rat aortae (aortic rings); test: [3H]AA release in intact rat aortae; assay type: cell-based; conditions: 5 minutes, then ET-1 dose range
Procedure: Measurement of [^3H]AA release in intact rat aortae. Aortic rings (1.5 mm long) were placed in 1 mL of physiological saline solution (PSS, containing 130 mM NaCl, 5 mM KCl, 1.5 mM CaCl2, 1.2 mM MgCl2, 10 mM HEPES, and 10 mM glucose adjusted to pH 7.2 with NaOH) and incubated with 2.5 μCi of [^3H]AA (specific activity of 91.8 Ci/mmol) for 24 h at 4° C. Rat aortae were subsequently washed in 50 mL of Kreb's buffer and then subjected to the vasoactivity assay. Initial background [^3H]AA release was determined following 30 min of equillibration for each aortic ring prior to treatment by removing 200 μL of Kreb's buffer (total volume of 7 mL each) from each bath, and measuring radioactivity (in cpm) after the addition of 1 mL of scintillant (EcoLume, ICN Inc., Calif.) using a liquid scintillation counter (1209 Rackbeta, WALLAC Inc., Md.). Subsequently, aortic rings were treated with sPLA2 alone or Aβ1-40 (1 μM) in the presence or absence of a MEK1/2 inhibitor (PD 98059) or a cPLA2 inhibitor (AACOCF3) for 5 min, or went untreated for the same length of time (control). Quantification of [^3H]AA release was then preformed as described above. All aortic rings were then subjected to a dose range of ET-1 (1, 2.5, and 5 nM), and radioactivity was measured 5 min after the first dose of ET-1 (1 nM), and 20 min after the second (2.5 nM) and third (5 nM) doses of ET-1. Radioactivity incorporated into each ring was determined by placing the aortic ring in 1 mL of scintillant and assaying as described above. Results are expressed as the means ±1 SE of the percentage of [^3H]AA incorporated for each aortic ring [([^3H]AA released—[^3H]AA initial background)/incorporated [^3H]AA].
as §1

N9 microglial cells = test: Leukotriene B4 (LTB4) ELISA on microglial cell supernatants; assay type: cell-based, murine; conditions: 500 nM, 18 hours; FIG. 23
Procedure: Leukotriene -B4 (LTB4) enzyme-linked immunoabsorbant assay (ELISA). Quantitative determination of LTB4 levels was made using a competitive binding ELISA (R&D Systems, Minneapolis, Minn.) designed to measure LTB4 in cell culture supernatants (as described in Paris et al., Exp Neurol 1999). A murine microglial cell line (N9) was provided by Dr. Paola Ricciardi-Castagnoli (Cellular Pharmacology Center, Milan, Italy) and were grown in RPMI medium supplemented with five percent fetal calf serum, 2 mM glutamine, 100 U/mL penicillin, […] streptomycin and 0.05 mM 2-mercaptoethanol. Microglial cells were seeded at 50,000 cells/well in 6-well plates (Falcon, France) and treated with Aβ1-40 (500 nM), drugs which oppose the PLA2/AA/5-LOX/COX-2 pathway, or untreated (control) and incubated for 18 hours. Cell supernatants were then collected and diluted 10-fold in assay buffer. 50 μL of diluted samples were then used in the assay, and each sample was assayed in duplicate. Manipulations were performed in accordance with the manufacturer's instruction. A spectramax 250 spectrophotometer (Molecular Devices, San Diego, USA) was used to measure absorbance at 405 nm and a standard curve was plotted using a 4-parameter model.
as §1

N9 microglia = test: [3H]AA release in cultured microglial cells; assay type: cell-based, murine; conditions: FIG. 24
Procedure: Measurement of [^3H]AA release in cultured cells. Microglial cells were cultured as described above, seeded at 50,000 cells/well in 6-well plates (Falcon, France), and incubated with 0.4 μCi/mL [^3H]AA for 18 h. Cells were washed multiple times with 1 mL of complete medium and were then treated with 1 μM of Aβ1-40 or 10 U/mL of sPLA2 for 5 h. Cell culture supernatants were collected each hour following treatment and radioactivity was quantified as described above.
as §1

[4] = test system: NGF-β differentiated PC12 cells; test: [3H]AA release in neuronal cells; assay type: cell-based, rat; conditions: FIG. 25
Procedure: Measurement of [^3H]AA release in neuronal cells (cultured differentiated PC12 cells). A rat pheochromocytoma cell line (PC12) was grown in Kahn's modification of F12 medium supplemented with 10% fetal calf serum, 100 U/mL penicillin and […] streptomycin. PC12 cells were seeded at 35,000 cells/well and differentiated with 60 ng/mL NGF-β for 5-6 days and then maintained with 5 ng/mL NGF-β thereafter. PC12 cells were treated with 0.4 μCi/mL of [^3H]AA for 18 h and were washed multiple times with 1 mL of complete medium to remove unincorporated [^3H]AA. Cells were then treated with 1 μM of Aβ1-40 or 40 U/mL of sPLA2 for 5 h. Cell culture supernatants were collected each hour following treatment and radioactivity was quantified as described above.
Statistical analysis. Analysis of variance (ANOVA) was used to analyze the data, with post-hoc comparisons of means carried out where appropriate by Sheffe's or Bonferonni's methods. Levene's test for equality of variance followed by t-test for independent samples was used for single mean comparisons. Alpha levels were set at 0.05 for all analyses. Analyses were performed using SPSS for Windows release 9.5.

[5] = test system: rat aortae (aortic rings); conditions: freshly solubilized; previously shown (Crawford et al., 1998); cited from earlier work

With `COc1ccc(C[C@H]2NC[C@H](O)[C@H]2OC(C)=O)cc1` [anisomycin] the “activation of p38 MAPK (phospho-specific immunostaining)” value ([1]; 20 μM) was “brown immunostaining is intensified, and a strong nuclear staining is evident”.
For “Aβ1-40: soluble β-amyloid peptide containing forty amino acids, obtained from QCB”, the “enhancement of ET-1-induced vasoconstriction versus Aβ-free condition” value ([2]; 50 nM dose, across 2.5 nM and 5 nM ET-1, FIG. 1) was “significant difference”, the “duration of ET-1-induced vasoconstriction (vasotension t=0 to 10 minutes after 5 nM ET-1)” value ([2]; 1 μM, 5 minutes prior to ET-1 (1, 2.5, 5 nM), FIG. 2) was “induces a long-lasting vasoconstriction” and the “lowest dose giving sustained constriction / enhancement of ET-1-induced vasoconstriction” value ([2]; freshly solubilized peptide) was at most 50 nM. For the same compound, the “[3H]AA release from aortic rings” value ([3]; Aβ1-40 1 μM, FIG. 21) was “enhances the release of [^3H]AA from aortic rings”, the “microglial LTB4 release” value (N9 microglial cells) was “increased release of LTB4” and the “[3H]AA release in N9 microglia” value (N9 microglia; 1 μM for 5 h) was “stimulates AA release from N9 microglia”. For the same compound, the “[3H]AA release in neuronal cells” value ([4]; 1 μM for 5 h) was “stimulates AA release from neuronal cells”, the “activation of p38 MAPK (phospho-specific immunostaining)” value ([1]; Aβ1-40 5 μM) was “increases the phosphorylation of p38 MAPK” and the “magnitude of constriction induced by ET-1 in isolated mammalian vessels” value [5] was “increase the magnitude of constriction induced by ET-1”.
For “type I sPLA2: secretory porcine pancreatic PLA2 (type I sPLA2), purchased from Sigma”, the “effect on ET-1-induced vasoconstriction” value ([2]; 1 U/mL, 5 minutes prior to ET-1 dose range, FIG. 6) was “able to enhance the vasoconstriction induced by ET-1”, the intrinsic vasoactive properties ([2]; added directly into the vessel bath, without ET-1) was “does not display intrinsic vasoactive properties” and the “[3H]AA release from aortic rings” value ([3]; 10 U/mL, FIG. 20) was “increased release of [^3H]AA”. The “[3H]AA release in N9 microglia” value (N9 microglia; 10 U/mL for 5 h) was “induces the release of [^3H]AA” and the “[3H]AA release in neuronal cells” value ([4]; 40 U/mL for 5 h) was “induces the release of [^3H]AA”.

— patent US7605149B1, “Modulation of the phospholipase A2 pathway as a therapeutic” (University of South Florida, priority 1998, dated 2009)
